Data: patent US8765773B2, “Substituted hydroxamic acids and uses thereof” (Millennium Pharmaceuticals, Inc., priority 2010, dated 2014)

Target: T1, purified human HDAC6 (Homo sapiens, UniProt Q9UBN7)
T1 construct: purchased BPS Bioscience 5006
T1 sequence (Q9UBN7 1-1215): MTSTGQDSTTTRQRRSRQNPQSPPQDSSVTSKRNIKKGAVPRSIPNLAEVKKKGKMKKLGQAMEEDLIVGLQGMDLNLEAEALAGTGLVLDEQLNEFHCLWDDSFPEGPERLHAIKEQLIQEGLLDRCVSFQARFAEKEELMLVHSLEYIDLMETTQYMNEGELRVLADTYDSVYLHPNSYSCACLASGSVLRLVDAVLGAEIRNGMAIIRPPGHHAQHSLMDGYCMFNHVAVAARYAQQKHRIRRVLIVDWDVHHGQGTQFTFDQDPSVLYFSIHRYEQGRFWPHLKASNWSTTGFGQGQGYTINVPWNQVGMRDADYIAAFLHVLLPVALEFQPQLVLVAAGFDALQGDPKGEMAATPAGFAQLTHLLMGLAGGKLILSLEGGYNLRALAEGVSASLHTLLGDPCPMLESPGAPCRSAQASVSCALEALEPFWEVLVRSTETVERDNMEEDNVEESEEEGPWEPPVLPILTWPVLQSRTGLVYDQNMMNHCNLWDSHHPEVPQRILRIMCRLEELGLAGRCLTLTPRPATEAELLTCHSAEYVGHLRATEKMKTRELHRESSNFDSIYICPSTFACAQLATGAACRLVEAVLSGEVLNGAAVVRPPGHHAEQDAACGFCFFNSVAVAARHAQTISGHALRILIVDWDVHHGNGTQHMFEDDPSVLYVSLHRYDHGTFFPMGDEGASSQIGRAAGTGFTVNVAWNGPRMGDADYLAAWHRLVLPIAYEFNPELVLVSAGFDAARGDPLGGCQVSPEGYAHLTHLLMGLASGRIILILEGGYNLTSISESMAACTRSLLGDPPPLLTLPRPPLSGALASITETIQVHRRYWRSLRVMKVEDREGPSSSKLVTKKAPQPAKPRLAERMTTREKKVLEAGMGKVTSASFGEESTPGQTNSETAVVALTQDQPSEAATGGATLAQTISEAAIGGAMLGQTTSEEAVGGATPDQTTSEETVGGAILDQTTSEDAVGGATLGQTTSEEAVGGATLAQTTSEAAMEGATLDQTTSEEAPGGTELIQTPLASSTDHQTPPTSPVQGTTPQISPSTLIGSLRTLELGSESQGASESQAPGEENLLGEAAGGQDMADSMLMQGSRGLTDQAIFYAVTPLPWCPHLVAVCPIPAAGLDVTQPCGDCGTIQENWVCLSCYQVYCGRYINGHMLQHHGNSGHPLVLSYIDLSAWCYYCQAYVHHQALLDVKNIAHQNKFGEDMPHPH
Assay: HDAC6 Enzyme Assay
Format: biochemical
Conditions: read-out: Percent Inhibition; for inhibition at 0.412 µM: compound concentration 0.412 μM; for inhibition at 0.37 µM: compound concentration 0.37 μM
Method: To measure the inhibition of HDAC6 activity, purified human HDAC6 (BPS Bioscience; Cat. No. 5006) is incubated with substrate Ac-Arg-Gly-Lys(Ac)-AMC peptide (Bachem Biosciences; Cat. No. I-1925) for 1 hour at 30° C. in the presence of test compounds or vehicle DMSO control. The reaction is stopped with the HDAC inhibitor trichostatin A (Sigma; Cat. No. T8552) and the amount of Arg-Gly-Lys-AMC generated is quantitated by digestion with trypsin (Sigma; Cat. No. T1426) and subsequent measurement of the amount of AMC released using a fluorescent plate reader (Pherastar; BMG Technologies) set at Ex 340 nm and Em 460 nm. Concentration response curves are generated by calculating the fluorescence increase in test compound-treated samples relative to DMSO-treated controls, and percentage inhibition values at a single concentration or enzyme inhibition (IC50) values are determined from those curves. One skilled in the art will appreciate that the values generated either as percentage inhibition at a single concentration or IC50 values are subject to experimental variation.

| inhibition at 0.412 µM | inhibition at 0.37 µM | Compound |
| --- | --- | --- |
| 98.5% |  | O=C(NO)c1ccc2ccn(CCOc3ccccc3-n3cccc3)c(=O)c2c1 [Compound I-71, N-hydroxy-1-oxo-2-{2-[2-(1H-pyrrol-1-yl)phenoxy]ethyl}-1,2-dihydroisoquinoline-7-carboxamide] |
| 94.1% |  | O=C(NO)c1ccc2ccn(CCCOc3cccc(-c4csnn4)c3)c(=O)c2c1 [Compound I-72, N-hydroxy-1-oxo-2-{3-[3-(1,2,3-thiadiazol-4-yl)phenoxy]propyl}-1,2-dihydroisoquinoline-7-carboxamide] |
| 87.7% |  | O=C(NO)c1ccc2c(=O)n(Cc3ccc(C(F)(F)F)cc3)c(-c3ccccc3)nc2c1 [Compound I-73, N-hydroxy-4-oxo-2-phenyl-3-[4-(trifluoromethyl)benzyl]-3,4-dihydroquinazoline-7-carboxamide] |
| 94.8% |  | O=C(NO)c1ccc2c(=O)n(CCCc3ccccc3)cnc2c1 [Compound I-74, N-hydroxy-4-oxo-3-(3-phenylpropyl)-3,4-dihydroquinazoline-7-carboxamide] |
| 94.6% |  | O=C(NO)c1ccc2ccn(Cc3ccc(C(F)(F)F)cc3)c(=O)c2c1 [Compound I-75, N-hydroxy-1-oxo-2-[4-(trifluoromethyl)benzyl]-1,2-dihydroisoquinoline-7-carboxamide] |
| 93.8% |  | O=C(NO)c1ccc2ccn(Cc3ccc(F)cc3)c(=O)c2c1 [Compound I-76, 2-(4-fluorobenzyl)-N-hydroxy-1-oxo-1,2-dihydroisoquinoline-7-carboxamide] |
| 91% |  | O=C(NO)c1ccc2ccn(CCNCc3cccc(C(F)(F)F)c3)c(=O)c2c1 [Compound I-77, N-hydroxy-1-oxo-2-(2-{[3-(trifluoromethyl)benzyl]amino}ethyl)-1,2-dihydroisoquinoline-7-carboxamide] |
| 92.9% |  | O=C(NO)c1ccc2ccn(Cc3ccc(C(F)(F)F)cc3C(F)(F)F)c(=O)c2c1 [Compound I-78, 2-[2,4-bis(trifluoromethyl)benzyl]-N-hydroxy-1-oxo-1,2-dihydroisoquinoline-7-carboxamide] |
|  | 84.1% | O=C(NO)c1ccc2ncn(Cc3cccc(-c4cc(C(F)(F)F)cc(C(F)(F)F)c4)c3)c(=O)c2c1 [Compound I-79, 3-{[3′,5′-bis(trifluoromethyl)biphenyl-3-yl]methyl}-N-hydroxy-4-oxo-3,4-dihydroquinazoline-6-carboxamide] |
|  | 86.7% | CC(=O)Nc1ccc(-c2cccc(Cn3cnc4ccc(C(=O)NO)cc4c3=O)c2)cc1 [Compound I-80, 3-{[4′-(acetylamino)biphenyl-3-yl]methyl}-N-hydroxy-4-oxo-3,4-dihydroquinazoline-6-carboxamide] |
| 76.7% |  | CC(C)Cc1nc2cc(C(=O)NO)ccc2c(=O)n1Cc1ccc(C(F)(F)F)cc1 [Compound I-81, N-hydroxy-2-isobutyl-4-oxo-3-[4-(trifluoromethyl)benzyl]-3,4-dihydroquinazoline-7-carboxamide] |
|  | 100% | O=C(NO)c1ccc2ccn(Cc3cccc(-n4cccn4)c3)c(=O)c2c1 [Compound I-82, N-hydroxy-1-oxo-2-[3-(1H-pyrazol-1-yl)benzyl]-1,2-dihydroisoquinoline-7-carboxamide] |
| 89.7% |  | O=C(NO)c1ccc2ccn(Cc3cccc4cccnc34)c(=O)c2c1 [Compound I-83, N-hydroxy-1-oxo-2-(quinolin-8-ylmethyl)-1,2-dihydroisoquinoline-7-carboxamide] |
| 60.5% |  | CCN(CC)Cc1nc2cc(C(=O)NO)ccc2c(=O)[nH]1 [Compound I-84, 2-[(diethylamino)methyl]-N-hydroxy-4-oxo-3,4-dihydroquinazoline-7-carboxamide] |
|  | 72.6% | O=C(NO)c1ccc2c(=O)n(Cc3ccc(C(F)(F)F)cc3)c(-c3ccc4ccccc4c3)nc2c1 [Compound I-85, N-hydroxy-2-(2-naphthyl)-4-oxo-3-[4-(trifluoromethyl)benzyl]-3,4-dihydroquinazoline-7-carboxamide] |
| 74.2% |  | O=C(NO)c1ccc2c(=O)n(-c3ccccc3)c(NCc3ccc(Cl)cc3)nc2c1 [Compound I-86, 2-[(4-chlorobenzyl)amino]-N-hydroxy-4-oxo-3-phenyl-3,4-dihydroquinazoline-7-carboxamide] |

Second part, the compound before the results:

| Compound | inhibition at 0.412 µM | inhibition at 0.37 µM |
| --- | --- | --- |
| O=C(NO)c1ccc2c(=O)n(CC3CC3)cnc2c1 [Compound I-59, 3-(cyclopropylmethyl)-N-hydroxy-4-oxo-3,4-dihydroquinazoline-7-carboxamide] | 80.7% |  |
| CC(=O)Nc1cccc(-c2cccc(Cn3cnc4ccc(C(=O)NO)cc4c3=O)c2)c1 [Compound I-60, 3-{[3′-(acetylamino)biphenyl-3-yl]methyl}-N-hydroxy-4-oxo-3,4-dihydroquinazoline-6-carboxamide] |  | 98.4% |
| O=C(NO)c1ccc2ccn(Cc3cccc(C(F)(F)F)c3)c(=O)c2c1 [Compound I-61, N-hydroxy-1-oxo-2-[3-(trifluoromethyl)benzyl]-1,2-dihydroisoquinoline-7-carboxamide] | 95.7% |  |
| O=C(NO)c1ccc2ccn(CCCCOc3ccccc3)c(=O)c2c1 [Compound I-62, N-hydroxy-1-oxo-2-(4-phenoxybutyl)-1,2-dihydroisoquinoline-7-carboxamide] | 98% |  |
| O=C(NO)c1ccc2ncn(Cc3ccccc3Cl)c(=O)c2c1 [Compound I-63, 3-(2-chlorobenzyl)-N-hydroxy-4-oxo-3,4-dihydroquinazoline-6-carboxamide] | 93.2% |  |
| O=C(NO)c1ccc2ccn(C3CCC3)c(=O)c2c1 [Compound I-64, 2-cyclobutyl-N-hydroxy-1-oxo-1,2-dihydroisoquinoline-7-carboxamide] | 93.1% |  |
| O=C(NO)c1ccc2ccn(Cc3c(F)c(F)c(F)c(F)c3F)c(=O)c2c1 [Compound I-65, N-hydroxy-1-oxo-2-(pentafluorobenzyl)-1,2-dihydroisoquinoline-7-carboxamide] | 93% |  |
| O=C(NO)c1ccc2c(=O)[nH]c(COc3ccc4c(c3)OCO4)nc2c1 [Compound I-66, 2-[(1,3-benzodioxol-5-yloxy)methyl]-N-hydroxy-4-oxo-3,4-dihydroquinazoline-7-carboxamide] | 89.5% |  |
| O=C(NO)c1ccc2ncn(Cc3nc4ccccc4s3)c(=O)c2c1 [Compound I-67, 3-(1,3-benzothiazol-2-ylmethyl)-N-hydroxy-4-oxo-3,4-dihydroquinazoline-6-carboxamide] | 49.2% |  |
| O=C(NO)c1ccc2c(=O)[nH]c(C(=O)NCc3ccc(Cl)cc3)nc2c1 [Compound I-68, N^2-(4-chlorobenzyl)-N^7-hydroxy-4-oxo-3,4-dihydroquinazoline-2,7-dicarboxamide] | 61.7% |  |
| O=C(NO)c1ccc2ncn(Cc3cccc(-c4ccc(C(F)(F)F)cc4)c3)c(=O)c2c1 [Compound I-69, N-hydroxy-4-oxo-3-{[4′-(trifluoromethyl)biphenyl-3-yl]methyl}-3,4-dihydroquinazoline-6-carboxamide] |  | 82% |
| COc1ccc(Nc2nc3ccc(C(=O)NO)cc3c(=O)n2C)cc1 [Compound I-70, N-hydroxy-2-[(4-methoxyphenyl)amino]-3-methyl-4-oxo-3,4-dihydroquinazoline-6-carboxamide] | 46.7% |  |
